Molecular target: T1, ALPL (Mus musculus, UniProt P09242)
T1 construct: from tissue; host or cells: brain sections (cerebral cortex vasculature) of aged C57BL/6 mice dosed in vivo
T1 sequence (P09242 18-501): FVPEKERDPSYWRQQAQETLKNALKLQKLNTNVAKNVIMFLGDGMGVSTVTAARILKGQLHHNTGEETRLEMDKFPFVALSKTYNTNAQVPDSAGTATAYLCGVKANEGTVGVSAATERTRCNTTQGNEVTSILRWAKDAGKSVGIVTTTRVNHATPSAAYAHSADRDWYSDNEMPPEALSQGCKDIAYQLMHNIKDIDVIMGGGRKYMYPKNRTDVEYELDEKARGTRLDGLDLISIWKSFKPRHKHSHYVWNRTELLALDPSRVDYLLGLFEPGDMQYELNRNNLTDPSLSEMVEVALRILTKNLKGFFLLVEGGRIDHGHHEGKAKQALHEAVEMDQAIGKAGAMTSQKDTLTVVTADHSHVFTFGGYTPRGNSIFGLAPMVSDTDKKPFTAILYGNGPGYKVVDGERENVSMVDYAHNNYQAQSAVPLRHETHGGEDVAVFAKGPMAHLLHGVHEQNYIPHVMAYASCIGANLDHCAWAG
Experiment: ALPL activity in the cerebral cortex vasculature (Red Alkaline Phosphatase Substrate Kit)
Format: in vivo
Conditions: aged (22 m.o.) mice, 8.75 mg/kg intraperitoneally twice per day for three days, vs vehicle
Text: FIG. 12A is a dot plot representation of cell-surface, druggable gene candidates on brain endothelial cells. Genes were plotted by their degree of blood-brain barrier specificity (Daneman et al., PLoS One (2010). doi:10.1371/journal.pone.0013741) and correlation with plasma uptake. Genes were colored by their upregulation (brown) or downregulation (green) with age. FIG. 12B includes representative images of calcified nodules (Alizarin red staining) detected in aged (23 m.o.—bottom panel) but not young (3 m.o.—top panel) mice, recapitulating nodules seen in pericyte-deficient Pdgfbret/ret mice (Keller et al., Nat. Genet. (2013). doi:10.1038/ng.2723) (representative image of n=5 mice per age). […] FIG. 12E is a graph illustrating quantification of ALPL expression in the cerebral cortex vasculature of young (3 m.o.) and aged (23 m.o.) mice (n=7, two-sided t-test; mean+/−s.e.m.). […] Uptake in the brain endothelium and parenchyma was assessed by flow cytometry and confocal microscopy of the cortex and hippocampus. […] FIG. 12H is a graph illustrating quantification of ALPL activity in the cerebral cortex vasculature of aged (22 m.o.) mice treated with ALPL inhibitor (anti-ALPL) or vehicle and in young (3 m.o.) mice (n=6-9, one-way ANOVA with Tukey's multiple comparisons correction; mean+/−s.e.m.). […]

ALPL activity in the aged brain vasculature: decreased
Compound: COc1ccc(OC)c(S(=O)(=O)Nc2cnc3ccccc3c2)c1 [ALPL inhibitor, 2,5-Dimethoxy-N-(quinolin-3-yl)benzenesulfonamide]
